Reference: PubChem BioAssay (NCI)
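The compound was tested at five concentrations on cells cultured in 96-well plates, with a 48-hour exposure period. TGI is the concentration that stops growth completely.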

Columns and labels:
Assay in all cases: NCI anticancer screen, dose series, 48 h
EKVX NSCLC = system: EKVX NSCLC
K-562 leukemia = system: K-562 leukemia
SF-268 CNS = system: SF-268 CNS
SK-MEL-2 melanoma = system: SK-MEL-2 melanoma
SNB-19 CNS = system: SNB-19 CNS
SNB-75 CNS = system: SNB-75 CNS
SF-295 CNS = system: SF-295 CNS

Row | Structure (SMILES) | TGI (EKVX NSCLC) | TGI (K-562 leukemia) | TGI (SF-268 CNS) | TGI (SK-MEL-2 melanoma) | TGI (SNB-19 CNS) | TGI (SNB-75 CNS) | TGI (SF-295 CNS)
1 | O=C(O)C1(Cc2ccc3c(c2)CCC3)Cc2cc3c(cc2C1)CCC3 | > 100 µM | > 100 µM | > 100 µM | > 100 µM | > 100 µM | > 100 µM | –
2 | COc1ccc(C2=C(N)c3ccccc3C2=O)cc1 | > 100 µM | – | > 100 µM | > 100 µM | 64.3 µM | 78.7 µM | > 100 µM
3 | O=C(O)c1cc2c(cc1CC(Cc1ccccc1)C(=O)O)CCC2 (configuration not stated) | > 100 µM | > 100 µM | > 100 µM | > 100 µM | > 100 µM | > 100 µM | > 100 µM
4 | Cc1cc2nnn(C3CCCO3)c2cc1C (configuration not stated) | > 100 µM | > 100 µM | > 100 µM | > 100 µM | – | > 100 µM | > 100 µM
5 | COc1cccc(C2c3cc4c(cc3OC(N3CCOCC3)C2C)OCO4)c1 (configuration not stated) | 87.7 µM | > 100 µM | 85.5 µM | 83.6 µM | > 100 µM | > 100 µM | 35.7 µM
6 | CCCS(=O)OC1C(C2COC(C)(C)O2)OC2OC(C)(C)OC21 (configuration not stated) | 32 µM | > 100 µM | 62.4 µM | 37.4 µM | 30.8 µM | > 48.8 µM | 36.1 µM
7 | O=C(n1c(=O)n(-c2ccc([N+](=O)[O-])cc2)c(=O)n1C(=O)C(Cl)(Cl)Cl)C(Cl)(Cl)Cl | > 100 µM | – | > 100 µM | > 100 µM | > 100 µM | > 100 µM | > 100 µM
8 | NC(=S)N1N=C(c2ccc3c(c2)CCC3)CC1c1ccccc1 (configuration not stated) | > 100 µM | > 100 µM | > 100 µM | 36.2 µM | > 100 µM | 56.1 µM | 68.3 µM
9 | Cc1ccc(N=Nc2cc(=O)[nH]c(=O)[nH]2)cc1C | 34.7 µM | > 100 µM | 42.6 µM | – | 35.2 µM | 15.3 µM | 28.7 µM
10 | O=C(NC(Cc1c[nH]c2ccccc12)C(=O)O)/C(=C/c1ccccc1)NC(=O)c1ccccc1 (configuration not stated) | > 100 µM | > 100 µM | > 100 µM | > 100 µM | > 100 µM | > 100 µM | > 100 µM
11 | NC(=O)CN1CCN(c2nc(N3CCCC3)c3nc(Cl)c(NCc4ccccc4)nc3n2)CC1 | 30.3 µM | 21 µM | 17 µM | 17.3 µM | 18.9 µM | 24.4 µM | 16.3 µM
12 | COc1cc(/C=C/C=C2\CC(C)C/C(=C\C=C\c3ccc(O)c(OC)c3)C2=O)ccc1O (configuration not stated) | > 100 µM | > 100 µM | > 100 µM | > 100 µM | 96.2 µM | 32.3 µM | –
13 | CC(=O)Oc1ccc(-c2c(OC(C)=O)c(OC(C)=O)c(-c3ccc(OC(C)=O)c(OC(C)=O)c3)c(OC(C)=O)c2OC(C)=O)cc1 | 20.2 µM | 43.5 µM | 32.8 µM | 29.9 µM | 32.6 µM | 31.9 µM | 21.3 µM
14 | Cc1cc(C(C)(C)C)c(OCCCN2CCOCC2)c(C(C)(C)C)c1 | 32.5 µM | 33.3 µM | 33.5 µM | 31.3 µM | 32.1 µM | 32.6 µM | 33.1 µM
